Measured values reported in paper PMC7029851, “Antibacterial activity of novel dual bacterial DNA type II topoisomerase inhibitors” (PLoS ONE, 2020).
Where two headings read alike, the source gives them in different places.

Tests used:
[1] = tested on: E. coli ATCC 25922; experiment: Post-antibiotic effect (PAE); assay type: cell-based, Escherichia coli; conditions: 1× and 4× MIC
Protocol: A drug-free control was included in each experiment. After being exposed to the drug for 1 hour, viable counts were conducted in triplicate by spotting aliquots (10 μl) of suitable dilutions onto MHA plates. The drugs were removed by diluting the bacterial cultures (1:1000) in Cation-Adjusted Mueller-Hinton Broth (CAMHB; Sigma-Aldrich). The diluted cultures were incubated in a shaking bath at 37°C. To monitor the ongoing suppression of bacterial growth over time (5 hours), aliquots from each broth culture were periodically collected, diluted and plated to perform subsequent viable counts (in triplicate).

[2] = tested on: S. aureus ATCC BAA-1720; experiment: Time-kill assay; assay type: cell-based, Staphylococcus aureus; conditions: for Bactericidal activity in time-kill (reduction of 3 log10 CFU/ml): 1× to 4× MIC, over 24 hours
Protocol: (§1) Time-kill experiments were performed according to the procedure reported by Knapp. […] A drug-free control was included in each experiment. The bacterial cultures were standardized to obtain an initial inoculum that ranged from 5×10^5 to 5×10^6 CFU/ml. The cultures were incubated at 37°C in a shaking bath. At 0, 2, 4, 8 and 24-hour intervals, viable counts were performed by spotting (in triplicate) 10 μl aliquots of suitable dilutions of the cultures onto Mueller-Hinton agar (MHA, Oxoid, Basingstoke, UK) plates. After incubation at 37°C for 24 hours, the bactericidal activity, namely, the ability to reduce the initial inoculum by 3 log10 CFU/ml, was assessed for each tested concentration over time.

[3] = tested on: S. aureus ATCC 29213; experiment: Time-kill assay; assay type: cell-based, Staphylococcus aureus; conditions: for Bactericidal activity in time-kill (reduction of 3 log10 CFU/ml): 1× to 4× MIC (compound 1 also 8× and 16× MIC), over 24 hours
Protocol: as §1

[4] = tested on: HepG2 mammalian cell line; experiment: Cytotoxicity assay (CellTiter-Blue); assay type: cell-based; conditions: Homo sapiens, HepG2, 24 hours of incubation, read-out: IC50 mammalian cell viability
Protocol: Cytotoxicity assay. Cytotoxicity of compounds 1 and 2 was assessed, after 24 hours of incubation in EMEM containing 10% fetal bovine serum, HepG2 mammalian cell line viability was evaluated using CellTiter-Blue Cell Viability Assay (Promega, WI, USA) according to the manufacturer’s instructions. Concentration-response curves were obtained by non-linear regression analysis using the GraphPad PRISM 6 software.

[5] = tested on: S. aureus ATCC 29213 and S. aureus BAA-1720; experiment: MIC in the presence of 20% human serum

Row | Compound | PAE compared with ciprofloxacin [1] | Bactericidal activity in time-kill (reduction of 3 log10 CFU/ml) [2] | Concentration with bactericidal activity in time-kill ([2]; 4× MIC, after a 24 hour incubation) | Bactericidal activity in time-kill (reduction of 3 log10 CFU/ml) [3] | Bactericidal activity in time-kill ([3]; 8× and 16× MIC, after 24 hour incubation) | Bactericidal activity in time-kill ([3]; concentrations up to 4× MIC) | IC50 [4] | IC50 ([4]; same value in μg/ml) | Change of MIC in the presence of 20% human serum [5]
1 | O=C1COc2ncc(F)cc2N1[C@H]1CC[C@H](NCc2cc3c(=O)oc4ccc(F)cc4c3[nH]2)CC1 [Compound 1, 8-fluoro-2-({[trans-4-(7-fluoro-2-oxo-2,3-dihydro-1H-pyrido[2,3-b][1,4]oxazin-1-yl)cyclohexyl]amino}methyl)[1]benzopyrano[4,3-b]pyrrol-4(1H)-one] | consistently higher | bactericidal effect | 2 µg/mL | bactericidal effect | effective | no bactericidal activity | 9 µM | 4 µg/mL | two-fold increase
2 | Cl.N#Cc1ccc2ccc(=O)n([C@H]3CC[C@H](NCc4cc5c(=O)oc6ccc(F)cc6c5[nH]4)CC3)c2c1 [Compound 2, 1-(trans-4-{[(8-fluoro-4-oxo-1,4-dihydro[1]benzopyrano[4,3-b]pyrrol-2-yl)methyl]amino}cyclohexyl)-2-oxo-1,2-dihydroquinoline-7-carbonitrile hydrochloride] | approximately two-fold greater | no bactericidal activity |  | no bactericidal activity |  |  | > 300 µM | > 145 µg/mL | not modified
